Here are results for 5 compounds from patent US12378208B2, “N-substituted oseltamivir derivatives with antimicrobial activity” (THE HONG KONG POLYTECHNIC UNIVERSITY, priority 2019, dated 2025).

One assay deals with IBV 12v33280. In words: Plaque assay in MDCK cells. The format is cell-based, influenza B virus. The note with it: for plaque size: MDCK, day 3, vs DMSO vehicle, both concentrations.
A further assay addresses NA from A/H3N2 (Influenza A virus, UniProt O91745). Kind of assay: biochemical. The format is biochemical, seasonal A/H3N2.
Another assay concerns IBV 12v33261. In words: Plaque assay in MDCK cells. The format is cell-based, influenza B virus. To be noted: for plaque size: MDCK, day 3, vs DMSO vehicle, both concentrations.
For another assay, the target named is neuraminidase (Influenza A virus, UniProt O91745). To be noted: previous studies (Ye et al., 2019); read-out: half maximal inhibitory concentration (IC50); cited from earlier work.
Sequence of neuraminidase (O91745 whole entry): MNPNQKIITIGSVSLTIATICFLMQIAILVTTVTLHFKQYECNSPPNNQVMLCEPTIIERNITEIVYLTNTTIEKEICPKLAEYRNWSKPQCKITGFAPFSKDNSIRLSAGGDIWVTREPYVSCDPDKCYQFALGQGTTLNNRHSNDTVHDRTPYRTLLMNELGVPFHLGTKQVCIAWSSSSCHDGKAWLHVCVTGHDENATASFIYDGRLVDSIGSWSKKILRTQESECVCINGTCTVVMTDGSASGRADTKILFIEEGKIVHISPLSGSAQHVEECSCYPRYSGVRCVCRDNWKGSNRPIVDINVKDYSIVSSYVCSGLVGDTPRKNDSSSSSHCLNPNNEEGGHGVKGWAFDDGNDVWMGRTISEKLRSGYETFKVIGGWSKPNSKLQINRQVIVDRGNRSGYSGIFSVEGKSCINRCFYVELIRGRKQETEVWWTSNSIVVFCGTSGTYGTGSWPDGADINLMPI
Assay [1] relates to influenza B virus (IBV) 12v28393. Kind of assay: Plaque assay in MDCK cells. The format is cell-based. The note with it: for plaque size: MDCK, day 3, vs DMSO vehicle, both concentrations.
Assay [2] relates to influenza A virus A/OK/447/08 (H1N1). In words: Plaque assay in MDCK cells. The format is cell-based. The note with it: for plaque count: two concentrations; for plaque size compared with 0.2 nM oseltamivir: both compounds at both concentrations vs 0.2 nM oseltamivir.
[3] abbreviates: 3.2 nM S22 vs 0.2 nM oseltamivir (p<0.01).

Sequence of NA from A/H3N2 (O91745 whole entry, looked up): as the sequence (O91745 whole entry) above

As for `CCC(CC)O[C@@H]1C=C(C(=O)O)C[C@H](NCc2noc(-c3ccco3)n2)[C@H]1NC(C)=O` [Compound S7, (3R,4R,5S)-4-acetamido-5-(((5-(furan-2-yl)-1,2,4-oxadiazol-3-yl)methyl)amino)-3-(pentan-3-yloxy)cyclohex-1-ene-1-carboxylic acid], the plaque size entry (in the assay on IBV 12v33280; with IBV 12v33261; in assay [1]) was “significantly reduce the plaque size” throughout. Moreover, the “% Inhibition (1 nM)” value at NA from A/H3N2 came out at 28.1 ± 1.7%. The IC50 against NA from A/H3N2 (Table 2, Example 32) is 1.92 ± 0.24 nM; at neuraminidase it was 1.9 nM. The “inhibition compared with 3.2 nM S22” value in assay [1] (3.8 nM S7 vs 3.2 nM S22 (p<0.05)) is on record as “extra benefit”. Besides, the plaque count entry in assay [2] ([…]) is on record as “not plaque count”. For the same compound, in assay [2], the “plaque size compared with 0.2 nM oseltamivir” value was “equally well”.

Consider `CCC(CC)O[C@@H]1C=C(C(=O)O)C[C@H](NCc2ccc(-c3c(C)noc3C)o2)[C@H]1NC(C)=O` [Compound S22, (3R,4R,5S)-4-acetamido-5-(((5-(3,5-dimethylisoxazol-4-yl)furan-2-yl)methyl)amino)-3-(pentan-3-yloxy)cyclohex-1-ene-1-carboxylic acid], for which the “plaque size compared with 0.2 nM oseltamivir” value in the assay with IBV 12v33280 (1.6 nM S22 vs 0.2 nM oseltamivir (p<0.05)) is recorded as “extra benefit”; in the assay on IBV 12v33280 (setting [3]) it was “better inhibition effect”; in the assay on IBV 12v33261 (3.2 nM S22 vs 0.2 nM oseltamivir (p<0.05)) it was “better inhibition effect”; in assay [1] (setting [3]) it was “better inhibition effect”; in assay [2], “equally well”. In addition, the “inhibition compared with 1.9 nM S7” value in the assay with IBV 12v33280 (1.6 nM S22 vs 1.9 nM S7 (p<0.05)) and with IBV 12v33280 (3.2 nM S22 vs 1.9 nM S7 (p<0.01)) was “better” throughout. The plaque size entry (in the assay on IBV 12v33280; in the assay with IBV 12v33261; in assay [1]) was “significantly reduce the plaque size” throughout. Further, on NA from A/H3N2, the “% Inhibition (1 nM)” value stood at 30.2 ± 1.5%. Moreover, the IC50 against NA from A/H3N2 (Table 2, Example 32) was 1.63 ± 0.16 nM; at neuraminidase, 1.6 nM. Also, in assay [2] ([…]), the plaque count result was “not plaque count”.

As for `CCC(CC)O[C@@H]1C=C(C(=O)O)C[C@H](NC(=O)c2cc(C3CC3)n(-c3ccccc3C)n2)[C@H]1NC(C)=O` [OC-028], at NA from A/H3N2, the “Inhibition rate, 1 μM” value is reported as 8.06% and the “Inhibition rate, 10 μM” value is 60.91%. The compound further gave an IC50 against NA from A/H3N2 (Table 4, Example 34) of 22700 nM.

Turning to `CCC(CC)O[C@@H]1C=C(C(=O)O)C[C@H](NC(=O)c2cc(C3CC3)nn2-c2ccccc2C)[C@H]1NC(C)=O` [OC-029], on NA from A/H3N2, the “Inhibition rate, 1 μM” value is given as 23.28% and the “Inhibition rate, 10 μM” value is 72.80%. Besides, the IC50 on NA from A/H3N2 (Table 4, Example 34) stood at 16900 nM.

On to `CCOC(=O)C1=C[C@@H](OC(CC)CC)[C@H](NC(C)=O)[C@@H](N)C1` [oseltamivir], for which the IC50 on neuraminidase is 0.1 nM. Further, in assay [2] ([…]), the plaque count result is recorded as “not plaque count”. In addition, the plaque size result in assay [2] ([…], two concentrations (oseltamivir 0.1/0.2 nM, S7 1.9/3.8 nM, S22 1.6/3.2 nM)) is listed as “reduction in plaque size”.
